Source: publication PMC7615343, “Fluorination Influences the Bioisostery of Myo-Inositol Pyrophosphate Analogs” (Chemistry (Weinheim an der Bergstrasse, Germany), 2023)

Test: Anion-exchange HPLC of [33P]-labeled products of PPIP5K2-mediated phosphorylation (relative polarity)
Assay type: physicochemical
Conditions: PartiSphere SAX column, NH4H2PO4 gradient pH 4.0; elution order 5PA-IP5 < 5PCF2Am-IP5 < 5PCP-IP5 < 5PCF2P-IP5 < 5PP-IP5
Source text: Lastly, we also developed a protocol by which we can infer the relative polarities of each of the analogs. […] As shown above, 5PA-IP5 and the other analogs each bind in potentially productive orientations in which the 1-phosphate is presented to the active site. Therefore, we attempted to radiolabel each of the analogs by incorporation of [33]Pi from [33]P-γ-ATP, with the objective of resolving each of the [33]P-labeled products by anion-exchange HPLC. We reasoned that this assay could provide an empirical comparison of the relative degree of acidity of each reaction product - and more instructively - the substrates themselves. It should be emphasized that this experiment cannot inform on the relative rates of phosphorylation, in large part because the experimental protocol (low mass levels of high-specific radioactivity of [33]P-γ-ATP) are not appropriate for biologically-relevant kinetic determinations.
Figure 6 HPLC analysis of the products of PPIP5K-mediated phosphorylation of 5PP-IP5 and the various analogs. […]
Kinase activity was studied at 37°C by incubating 700 ng PPIP5K2^1-366 separately with each individual 10 μM test compound and 50 μM ATP plus 60,000 CPM of [^33P-γ]ATP for 30 mins. Assays were quenched with 0.2 volumes of 2 M perchloric acid, neutralized, and [^33P]-labeled products were analyzed by ion-exchange HPLC, using a 4.6 × 125 mm, 5 μm PartiSphere SAX column. […]

## O=P(O)(O)O[C@H]1[C@@H](OP(=O)(O)O)[C@H](OP(=O)(O)O)[C@@H](OP(=O)(O)C(F)(F)P(=O)(O)O)[C@H](OP(=O)(O)O)[C@H]1OP(=O)(O)O [5PCF2P-IP5]
  Relative HPLC elution of phosphorylated product (protonation state / global polarity compared with 5PP-IP5): most closely resembles the natural molecule with regards to its protonation state
